From patent US20170334899A1, “AMINO-SUBSTITUTED ISOTHIAZOLES” (Bayer Pharma Aktiengesellschaft, priority 2014, published 2017)

biological target: T1, catalytic domain of human Bub1 (amino acids 704-1085) (Homo sapiens, UniProt O43683); experiment: Bub1 kinase assay (TR-FRET); type: biochemical; settings: 10 μM ATP, avg, read-out: Bub1 avg (IC50 [mol/l])
T1 construct: catalytic domain of human Bub1 (amino acids 704-1085); His6 (N); made in house; host or cells: insect cells (Hi5)
In short: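 Readout is the 665/620 nm TR-FRET ratio from anti-phosphoserine antibody, Eu-labelled anti-mouse IgG and streptavidin-XL665, scaled between no-enzyme and uninhibited controls. Reaction: 1 μM biotinylated peptide, 10 μM ATP, 60 min, 22 °C, after 15 min compound preincubation with His6-Bub1 (704-1085, insect-expressed, ~200 ng/ml).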

T1 sequence (O43683 704-1085): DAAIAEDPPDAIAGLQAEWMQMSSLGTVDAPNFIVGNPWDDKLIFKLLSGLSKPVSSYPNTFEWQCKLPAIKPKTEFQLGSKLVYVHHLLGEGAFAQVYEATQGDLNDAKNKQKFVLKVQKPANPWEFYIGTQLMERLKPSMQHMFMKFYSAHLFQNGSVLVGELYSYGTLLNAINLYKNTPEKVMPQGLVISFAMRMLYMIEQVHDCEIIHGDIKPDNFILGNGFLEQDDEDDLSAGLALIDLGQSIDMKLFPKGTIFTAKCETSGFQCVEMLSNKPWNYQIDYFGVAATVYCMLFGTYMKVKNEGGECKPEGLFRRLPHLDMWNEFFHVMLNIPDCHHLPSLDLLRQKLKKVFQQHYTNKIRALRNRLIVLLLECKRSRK

IC50 [µM]	SMILES
16	Cc1nsc(Nc2cnc3ccccc3n2)c1C(=O)Nc1cccc(C(=O)NCC(=O)OC(C)(C)C)c1 [Example 54, tert-Butyl N-[3-({[3-methyl-5-(quinoxalin-2-ylamino)-1,2-thiazol-4-yl]carbonyl}amino)-benzoyl]glycinate]
≥ 20	Cc1nsc(Nc2cnccn2)c1C(=O)Nc1ccc(OCCCN)nc1 [Example 48, N-[6-(3-Aminopropoxy)pyridin-3-yl]-3-methyl-5-(pyrazin-2-ylamino)-1,2-thiazole-4-carboxamide]
> 20	Cc1nsc(Nc2cnc(C(F)(F)F)cn2)c1C(=O)Nc1ccc(F)c(OC[C@@H]2CCN(CC(F)F)C2)c1 [Example 403, N-(3-{[(3R)-1-(2,2-difluoroethyl)pyrrolidin-3-yl]methoxy}-4-fluorophenyl)-3-methyl-5-{[5-(trifluoromethyl)pyrazin-2-yl]amino}-1,2-thiazole-4-carboxamide]
> 20	Cc1nsc(Nc2cnc(C(F)(F)F)cn2)c1C(=O)Nc1ccc(OCC2CCN(CCC(F)(F)F)CC2(F)F)nc1 (stereo not drawn) [Example 402, N-(6-{[3,3-difluoro-1-(3,3,3-trifluoropropyl)piperidin-4-yl]methoxy}pyridin-3-yl)-3-methyl-5-{[5-(trifluoromethyl)pyrazin-2-yl]amino}-1,2-thiazole-4-carboxamide]
≥ 20	Cc1nsc(Nc2cnc(C(F)(F)F)cn2)c1C(=O)Nc1ccc(OC2CCN(C(=O)OC(C)(C)C)CC2)nc1 [Example 5, tert-Butyl 4-[(5-{[(3-methyl-5-{[5-(trifluoromethyl)pyrazin-2-yl]amino}-1,2-thiazol-4-yl)carbonyl]amino}pyridin-2-yl)oxy]piperidine-1-carboxylate]
≥ 20	Cc1nsc(Nc2cnc(C(F)(F)F)cn2)c1C(=O)Nc1ccc(F)c(OCCCNC(=O)C(F)(F)F)c1 [Example 427, N-(4-Fluoro-3-{3-[(trifluoroacetyl)amino]propoxy}phenyl)-3-methyl-5-{[5-(trifluoro-methyl)pyrazin-2-yl]amino}-1,2-thiazole-4-carboxamide]
> 20	Cc1nsc(Nc2cnc(C(F)(F)F)cn2)c1C(=O)Nc1ccc(O[C@@H]2CN(CCC(F)(F)F)C[C@@H]2F)nc1 [Example 409, N-(6-{[(3R,4S)-4-Fluoro-1-(3,3,3-trifluoropropyl)pyrrolidin-3-yl]oxy}pyridin-3-yl)-3-methyl-5-{[5-(trifluoromethyl)pyrazin-2-yl]amino}-1,2-thiazole-4-carboxamide]
> 20	CCN1CCC(Oc2ccc(NC(=O)c3c(C)nsc3Nc3cnc(C(F)(F)F)cn3)cn2)C(F)(F)C1 (stereo not drawn) [Example 406, N-{6-[(1-Ethyl-3,3-difluoropiperidin-4-yl)oxy]pyridin-3-yl}-3-methyl-5-{[5-(trifluoromethyl)pyrazin-2-yl]amino}-1,2-thiazole-4-carboxamide]
> 20	Cc1nsc(Nc2cnc(C(F)(F)F)cn2)c1C(=O)Nc1ccc(F)c(OCC2CCN(CC(F)(F)F)C2)c1 (stereo not drawn) [Example 318, N-(4-fluoro-3-{[1-(2,2,2-trifluoroethyl)pyrrolidin-3-yl]methoxy}phenyl)-3-methyl-5-{[5-(trifluoromethyl)pyrazin-2-yl]amino}-1,2-thiazole-4-carboxamide]
> 20	CCN1CC[C@H](Oc2ccc(NC(=O)c3c(C)nsc3Nc3cnc(C(F)(F)F)cn3)cn2)[C@H](F)C1 [Example 424, N-(6-{[(3R,4S)-1-Ethyl-3-fluoropiperidin-4-yl]oxy}pyridin-3-yl)-3-methyl-5-{[5-(trifluoromethyl)pyrazin-2-yl]amino}-1,2-thiazole-4-carboxamide]
> 20	Cc1nsc(Nc2cnc(C(F)(F)F)cn2)c1C(=O)Nc1ccc(F)c(OC[C@H]2CCCN(CC(F)F)C2)c1 [Example 400, N-(3-{[(3S)-1-(2,2-difluoroethyl)piperidin-3-yl]methoxy}-4-fluorophenyl)-3-methyl-5-{[5-(trifluoromethyl)pyrazin-2-yl]amino}-1,2-thiazole-4-carboxamide]
≥ 20	Cc1nsc(Nc2cnc3ccccc3n2)c1C(=O)Nc1ccc(OCCCNC(=O)OC(C)(C)C)nc1 [Example 42, tert-Butyl (3-{[5-({[3-methyl-5-(quinoxalin-2-ylamino)-1,2-thiazol-4-yl]carbonyl}-amino)pyridin-2-yl]oxy}propyl)carbamate]
≥ 20	Cc1nsc(Nc2cc(C#N)ccn2)c1C(=O)Nc1ccc(OCCCNCC(F)F)nc1 [Example 45, 5-[(4-Cyanopyridin-2-yl)amino]-N-(6-{3-[(2,2-difluoroethyl)amino]propoxy}pyridin-3-yl)-3-methyl-1,2-thiazole-4-carboxamide]
≥ 20	Cc1nsc(Nc2cnccn2)c1C(=O)Nc1ccc(OCCCNC(=O)OC(C)(C)C)nc1 [Example 47, tert-Butyl (3-{[5-({[3-methyl-5-(pyrazin-2-ylamino)-1,2-thiazol-4-yl]carbonyl}-amino)pyridin-2-yl]oxy}propyl)carbamate]
> 20	Cc1nsc(Nc2cnc(C(F)(F)F)cn2)c1C(=O)Nc1ccc(F)c(O[C@H]2CCN(CC(F)(F)F)C2)c1 [Example 416, N-(4-Fluoro-3-{[(35)-1-(2,2,2-trifluoroethyl)pyrrolidin-3-yl]oxy}phenyl)-3-methyl-5-{[5-(trifluoromethyl)pyrazin-2-yl]amino}-1,2-thiazole-4-carboxamide]
> 20	CC(=O)Nc1ccc(NC(=O)c2c(C)nsc2Nc2ccc(C#N)cn2)cn1 [Example 435, N-(6-Acetamidopyridin-3-yl)-5-[(5-cyanopyridin-2-yl)amino]-3-methyl-1,2-thiazole-4-carboxamide]
> 20	Cc1nsc(Nc2cnc(C(F)(F)F)cn2)c1C(=O)Nc1ccc(F)c(O[C@H]2CCN(CCC(F)(F)F)C2)c1 [Example 415, N-(4-Fluoro-3-{[(3S)-1-(3,3,3-trifluoropropyl)pyrrolidin-3-yl]oxy}phenyl)-3-methyl-5-{[5-(trifluoromethyl)pyrazin-2-yl]amino}-1,2-thiazole-4-carboxamide]
> 20	Cc1nsc(Nc2cnc(C(F)(F)F)cn2)c1C(=O)Nc1ccc(O[C@@H]2CN(CC(F)F)C[C@@H]2F)nc1 [Example 411, N-(6-{[(3R,4S)-1-(2,2-Difluoroethyl)-4-fluoropyrrolidin-3-yl]oxy}pyridin-3-yl)-3-methyl-5-{[5-(trifluoromethyl)pyrazin-2-yl]amino}-1,2-thiazole-4-carboxamide]
≥ 20	Cc1nsc(Nc2cnccn2)c1C(=O)Nc1ccc(OC2CCCN(C(=O)OC(C)(C)C)C2)nc1 (stereo not drawn) [Example 41, tert-Butyl 3-{[5-({[3-methyl-5-(pyrazin-2-ylamino)-1,2-thiazol-4-yl]carbonyl}amino)-pyridin-2-yl]oxy}piperidine-1-carboxylate]
> 20	Cc1nsc(Nc2cnc(C(F)(F)F)cn2)c1C(=O)Nc1ccc(OCC2CCN(CC(F)F)CC2(F)F)nc1 (stereo not drawn) [Example 401, N-(6-{[1-(2,2-difluoroethyl)-3,3-difluoropiperidin-4-yl]methoxy}pyridin-3-yl)-3-methyl-5-{[5-(trifluoromethyl)pyrazin-2-yl]amino}-1,2-thiazole-4-carboxamide]
≥ 20	Cc1nsc(Nc2cnc3ccccc3n2)c1C(=O)Nc1cccc(C(=O)N[C@H](C(=O)OC(C)(C)C)[C@@H](C)OC(C)(C)C)c1 [Example 57, tert-Butyl O-tert-butyl-N-[3-({[3-methyl-5-(quinoxalin-2-ylamino)-1,2-thiazol-4 yl]carbonyl}amino)-benzoyl]threoninate]
